# From patent US20210371804A1, “Videomicroscopy of contractile cell cultures and cell culture methods using same” (Institut de Cardiologie de Montréal, priority 2020, published 2021)
# Test system: neonatal cardiomyocytes
# Assay: Videomicroscopy of contraction (composite signal ΔS) of neonatal cardiomyocyte monolayers
# Assay type: cell-based, rat
# Conditions: 1 minute after injection
# Method: All animal-handling procedures were concordant with the Canadian Council on Animal Care guidelines and were approved by the institutional Animal Research Ethics Committee. Isolation was performed according to the protocol of the neonatal cardiomyocyte isolation kit from Worthington. In summary, one to three days old rats (Sprague-Dawley, Charles River) were sacrificed by decapitation. Beating heart were removed from the rats and immediately put in cold Ca^2+ and Mg^2+-free Hank's Balanced Salt Solution. Ventricular muscle was selected by excision and tissue was minced on ice into 1-3 mm^3 pieces. The mixture was subjected to purified enzymatic digestion (trypsin and collagenase). Isolated cells (enriched cardiomyocytes) were counted and seeded at a density of 10^6 cells/mL in the seeding area of the membrane pre-coated with 0.2% porcine-derived gelatin (G1890, Sigma) and 0.00125% fibronectin solution (F1141, Sigma). Cells were grown for 24 hours in DMEM (319-050-CL, Wisent) with 5% fetal bovine serum (FBS, SH30396.03, Fisher Scientic Co. Ltd) and 1% penicillin/streptomycin (450-201-EL, Wisent). Cardiomyocytes were then FBS starved with 1% penicillin/streptomycin in DMEM 24 h prior to the experiments. Acute effects of the β-adrenergic agonist, isoproterenol (ISO, 16504, Sigma-Aldrich) was studied by videomicroscopy with final concentration of 100 nM at 1 minute after injection. […]
smiles,measurement,setting,value
"CC(C)NCC(O)c1ccc(O)c(O)c1 (centres unmarked) [ISO, isoproterenol]",slope of the linear regression of <RatioC/R> as a function of <T>,"ISO 100 nM, 0.146 for CTL, <T> and group effects p<0.001",0.490
same,period of activity,"ISO final concentration 100 nM, vs. 1.9±2.4 s in CTL, p<0.05",0.9 ± 0.6 s
